# Results: EP4470536A1, “COMPOUND FOR USE IN TREATING FIBRODYSPLASIA OSSIFICANS PROGRESSIVA (FOP)” (Queen's University At Kingston, priority 2023, dated 2024)
# Legend:
# ectopic bone formation = assay: Genetic mouse model of FOP, pinch injury-induced ectopic bone formation, micro-CT; type: in vivo, Acvr1^(cR206H/+);Pdgfra-Cre+ mice; settings: for Mean ectopic bone volume D14 (mm^3) / Mean ectopic bone volume D14 [percent change from vehicle]: day 14; for Mean ectopic bone volume D22 (mm^3) / Mean ectopic bone volume D22 [percent change from vehicle]: day 22
# Source text: Acvr1^(cR206H/+) mice were obtained from the International Fibrodysplasia Ossificans Progressiva Association (IFOPA, North Kansas City, MO, USA). These animals harbour a Cre recombinase-inducible Acvr1 transgenic allele, which causes a switch from wild-type mouse ACVR1 protein expression to that of a chimeric mouse/human protein containing the R206H mutation seen in >95% of FOP patients. These animals were intercrossed with Pdgfra-Cre expressing mice (C57BL/6-Tg(PDGFRA-cre)1Clc/J mice, available through The Jackson Laboratory, Bar Harbor, ME, USA) which activates Cre recombination in fibro-adipogenic precursors, currently believed to be the cells of origin for FOP (Lees-Shepard, J.B., et al (2018) Nat Commun 9, 471.). Resulting study animals (ACVR1^(R206H/+);Pdgfra-Cre+) are susceptible to injury-induced ectopic bone formation. These animals were subjected to a bilateral gastrocnemius pinch procedure under anaesthesia, whereby a Halsted-mosquito hemostat (product#13008-12, Fine Science Tools Inc., North Vancouver, BC, Canada) is used to compress the gastrocnemius muscle, at its widest part, to approximately 2mm for 5s, and then released. This injury elicits robust ectopic bone formation within 10-14 days (for description of procedure see, Lyu, H., et al. (2021). Biomedicines 9(6).). […] Micro-CT imaging was performed on days 14 (under anaesthesia) and at study termination (day 22), as outlined above in Example 7. Sites of ectopic bone formation in the area of the injury were volumetrically quantified using Class stratification in Imalytics Preclinical software (version 3.0.2.3, Gremse-IT GmbH, Aachen, Germany) from DICOM renderings. Using this model, the utility of compound 1 in inhibiting bone formation in a genetic mouse model of FOP was illustrated (see Figure 11 and Table 3 below). Table 3. Effect of different doses of compound 1 on mean ectopic bone volume at 14 and 22 days following initiation of treatment
# CYP26B1 = target: T1, CYP26B1 (Homo sapiens, UniProt Q9NR63); assay: U2OS cell-based inhibitor assay (endogenous CYP26B1); parameters: This assay used a human cell type endogenously expressing the CYP26B1 enzyme; endogenous in cells; host or cells: U2OS, pre-treated with 1 µM RA for 24 hours; settings: U2OS cells pre-treated with 1 µM RA for 24 hours; Figure 4
# T1 sequence (Q9NR63 1-512): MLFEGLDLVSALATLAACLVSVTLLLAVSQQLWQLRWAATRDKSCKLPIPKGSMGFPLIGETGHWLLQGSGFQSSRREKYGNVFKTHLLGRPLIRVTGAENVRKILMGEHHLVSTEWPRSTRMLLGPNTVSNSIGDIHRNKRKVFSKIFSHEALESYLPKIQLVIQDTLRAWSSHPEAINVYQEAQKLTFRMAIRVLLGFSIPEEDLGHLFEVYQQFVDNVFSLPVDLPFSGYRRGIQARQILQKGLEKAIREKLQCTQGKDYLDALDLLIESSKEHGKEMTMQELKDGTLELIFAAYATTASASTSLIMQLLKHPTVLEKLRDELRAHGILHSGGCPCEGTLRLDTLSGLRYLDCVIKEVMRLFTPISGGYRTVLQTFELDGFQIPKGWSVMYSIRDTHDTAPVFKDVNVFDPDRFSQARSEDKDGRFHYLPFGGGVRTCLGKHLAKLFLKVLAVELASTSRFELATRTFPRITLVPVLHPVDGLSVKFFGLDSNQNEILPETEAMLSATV
# Procedure: This assay used a human cell type endogenously expressing the CYP26B1 enzyme to test the ability of a compound to block RA metabolism. U2OS cells were grown in McCoy's 5A medium containing 10% fetal bovine serum (FBS) and 1X antibiotic/antimycotic cocktail. Cells grown in a T-175 culture flask at […] were treated with 1 µM RA for 24 hours to induce the expression of the CYP26B1 gene prior to the assay. Following this treatment period, cells were collected by trypsinization, washed twice in PBS, and resuspended in 7 ml of fresh culture medium. These cells were then re-plated in 48-well plates, and the assay was carried out as described for the HeLa-cell based assay.
smiles,measurement,setting,value
"CC(C)(C)c1cccc(-c2cc3cc(/C=C/C(=O)O)ccc3[nH]2)c1 [Compound 1, (E)-3-(2-(3-(tert-butyl)phenyl)-1H-indol-5-yl)acrylic acid]",Mean ectopic bone volume D14 (mm^3),ectopic bone formation; 2mg/kg BID,2.92 ± 3.76 mm^3
same,Mean ectopic bone volume D14 [percent change from vehicle],ectopic bone formation; 2mg/kg BID,-76.9%
same,Mean ectopic bone volume D22 (mm^3),ectopic bone formation; 2mg/kg BID,2.62 ± 4.36 mm^3
same,Mean ectopic bone volume D22 [percent change from vehicle],ectopic bone formation; 2mg/kg BID,-77.9%
same,Mean ectopic bone volume D14 (mm^3),ectopic bone formation; 4mg/kg BID,0.20 ± 0.47 mm^3
same,Mean ectopic bone volume D14 [percent change from vehicle],ectopic bone formation; 4mg/kg BID,-98.5%
same,Mean ectopic bone volume D22 (mm^3),ectopic bone formation; 4mg/kg BID,0.00 ± 0.00 mm^3
same,Mean ectopic bone volume D22 [percent change from vehicle],ectopic bone formation; 4mg/kg BID,-100%
same,Mean ectopic bone volume D14 (mm^3),ectopic bone formation; 7.5mg/kg BID,0.31 ± 0.45 mm^3
same,Mean ectopic bone volume D14 [percent change from vehicle],ectopic bone formation; 7.5mg/kg BID,-97.5%
same,Mean ectopic bone volume D22 (mm^3),ectopic bone formation; 7.5mg/kg BID,0.07 ± 0.18 mm^3
same,Mean ectopic bone volume D22 [percent change from vehicle],ectopic bone formation; 7.5mg/kg BID,-99.4%
same,Mean ectopic bone volume D14 (mm^3),ectopic bone formation; 10mg/kg BID,1.28 ± 2.23 mm^3
same,Mean ectopic bone volume D14 [percent change from vehicle],ectopic bone formation; 10mg/kg BID,-89.9%
same,Mean ectopic bone volume D22 (mm^3),ectopic bone formation; 10mg/kg BID,1.40 ± 2.65 mm^3
same,Mean ectopic bone volume D22 [percent change from vehicle],ectopic bone formation; 10mg/kg BID,-88.2%
same,IC50,CYP26B1,1.9 nM
